Results on 27 compounds are retold here after patent publication US20080021069A1, “Receptor Function Regulating Agent” (TAKEDA PHARMACEUTICAL COMPANY LIMITED, priority 2004, published 2008).

Where a name gives a salt, the structure may show the parent alone.

A word on the melting point: it is the temperature of the solid-liquid transition. A word on the IC50: it is the point on the concentration scale where inhibition reaches its midpoint.

The target of one series is T1, human GPR40 (Homo sapiens, UniProt O14842).
T1 construct: expressed in transfected cells; host or cells: CHO(dhfr-) cells: line CHO-hGPR40 No. 104 of WO2004/041266, with a stably expressed NFAT-TA-Luc reporter (CHO(dhfr-)/GPR40-NFAT-Luc)
The series can be described thus: GPR40 antagonist activity with changes in intracellular calcium concentration as index (NFAT-luciferase reporter, CHO(dhfr-)/GPR40-NFAT-Luc cells). Type of series: cell-based. Conditions: CHO cell line expressing human GPR40, NFAT-Luc reporter; GPR40 agonist 3-(4-((6-benzyloxy-2',6'-dimethyl-biphenyl-3-yl)methoxy)phenyl)propanoic acid 40 nM; 4 hr culture; 0.1% fatty acid-free BSA. The source says: Evaluation of GPR40 antagonist activity with changes in intracellular calcium concentration as index
An assay system of GPR40 antagonist was established as follows. In this assay system, as the GPR40 agonist, 3-(4-((6-benzyloxy-2′,6′-dimethyl-biphenyl-3-yl)methoxy)phenyl)propanoic acid (compound described in Example 340 of WO2004/041266) was used.
First, NFAT-TA was cut out from pNFAT-TA-Luc (manufactured by BD Bioscience Clontech) with HindIII and NheI, the recovered fragment was inserted into pGL3 basic neo digested with HindIII and NheI to give plasmid:pGL3 basic neo NFAT-TA-Luc.
This plasmid was used for “the CHO cell line (CHO-hGPR40 No. 104), which was made to express human GPR40” described in WO2004/041266, and a cell line CHO(dhfr-)/GPR40-NFAT-Luc, wherein a reporter gene was stably expressed by a method known per se, was prepared.
This cell line was diluted with a medium (nucleic acid-free MEM (Minimum Essential Medium)—α medium added with dialyzed FBS (Fetal Bovine Serum) to a final concentration of 10%) in such a manner that 2×10^4 cells/100 μl would be contained, dispensed to a white walled 96 well plate (manufactured by Coster) by 100 μl per well, and cultured overnight in a CO2 incubator. Then the medium was removed by suction from the 96 well plate, and a 10 mM test compound-dimethyl sulfoxide (manufactured by Wako Pure Chemical Industries, Ltd.) solution diluted with a medium (nucleic acid-free MEM—α medium added with bovine serum albumin (BSA) free of fatty acid to a final concentration of 0.1%) to each concentration was added by 50 μl per well. Further, 3-(4-((6-benzyloxy-2′,6′-dimethyl-biphenyl-3-yl)methoxy)phenyl)propanoic acid diluted with a medium (nucleic acid-free MEM-α (medium added with BSA free of fatty acid to a final concentration of 0.1%) to a final concentration of 40 nM was added to the 96 well plate by 50 μl per well.
After culture in a CO2 incubator for 4 hr, the culture medium was removed from the 96 well plate. Then, PicaGene (manufactured by TOYO INK MFG. CO., LTD.) was added to the 96 well plate, and the luciferase activity was determined using PerkinElmer ARVO (trade name, manufactured by PerkinElmer), based on which changes in the intracellular calcium concentration were evaluated. After assay of luciferase activity, nonlinear regression analysis was performed using PRISM 3 (trade name, manufactured by GraphPad) and IC50 value was calculated with changes in the intracellular calcium concentration as an index.
In the same manner as in Experimental Example 1, the IC50 value of the compound of the present invention was calculated.
For orientation: Calcium assays in cells follow changes in intracellular calcium, usually with a dye or a luminescent sensor.

T1 sequence (O14842 whole entry): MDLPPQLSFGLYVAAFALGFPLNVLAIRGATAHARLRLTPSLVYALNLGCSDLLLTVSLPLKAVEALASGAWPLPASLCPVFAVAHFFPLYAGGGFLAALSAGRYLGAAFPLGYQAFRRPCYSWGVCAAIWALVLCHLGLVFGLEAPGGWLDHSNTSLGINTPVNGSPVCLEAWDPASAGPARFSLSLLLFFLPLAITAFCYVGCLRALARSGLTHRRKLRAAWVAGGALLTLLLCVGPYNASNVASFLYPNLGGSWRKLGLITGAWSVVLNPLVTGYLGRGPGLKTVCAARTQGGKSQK

In turn, `COCOc1ccc(-n2c(SCc3ccc(Cl)cc3)nc3ccc(Cl)cc32)cc1` [Example 7, 6-Chloro-2-[(4-chlorobenzyl)thio]-1-[4-(methoxymethoxy)phenyl]-1H-benzimidazole] came in with a melting point of 109 to 110 °C. Moreover, the 50% inhibitory concentration (IC50) at human GPR40 is less than 0.1 µM.
In the case of `COCOc1ccc(-n2c(SCc3ccc(Br)cc3)nc3ccc(Cl)cc32)cc1` [Example 8, 2-[(4-Bromobenzyl)thio]-6-chloro-1-[4-(methoxymethoxy)phenyl]-1H-benzimidazole], the melting point lay within 123 to 124 °C. Moreover, the IC50 on human GPR40 is less than 0.1 µM.
Taken in the same sequence, the figures for `CCCOc1ccc(-n2c(SCc3ccc(Cl)cc3)nc3ccc(Cl)cc32)cc1` [Example 12, 6-Chloro-2-[(4-chlorobenzyl)thio]-1-(4-propoxyphenyl)-1H-benzimidazole] were 102 to 103 °C and less than 0.1 µM.
In turn, `CCOc1ccc(-n2c(SCc3ccc(C(F)(F)F)cc3)nc3ccc(Cl)cc32)cc1` [Example 33, 6-Chloro-1-(4-ethoxyphenyl)-2-{[4-(trifluoromethyl)benzyl]thio}-1H-benzimidazole] showed a melting point of 103 to 104 °C. At human GPR40, the IC50 is less than 0.1 µM.
Taken in the same sequence, the figures for `CCOc1ccc(-n2c(SCc3ccc(C(F)(F)F)nc3)nc3ccc(Cl)cc32)cc1` [Example 36, 6-chloro-1-(4-ethoxyphenyl)-2-({[6-(trifluoromethyl)pyridin-3-yl]methyl}thio)-1H-benzimidazole] were 104 to 105 °C and less than 0.1 µM.
Taken in the same sequence, the figures for `CCOc1ccc(-n2c(SCc3ccc(C(C)(C)C)cc3)nc3ccc(Cl)cc32)cc1` [Example 38, 2-[(4-tert-butylbenzyl)thio]-6-chloro-1-(4-ethoxyphenyl)-1H-benzimidazole] were 142 to 143 °C and less than 0.1 µM.
Regarding `CC(C)Oc1ccc(-n2c(SCc3ccc(Cl)cc3)nc3cc(Cl)ccc32)cc1` [Example 46, 5-Chloro-2-[(4-chlorobenzyl)thio]-1-(4-isopropoxyphenyl)-1H-benzimidazole], the concentration for half-maximal inhibition (IC50) on human GPR40 is less than 0.1 µM.
For the compound `CCOc1ccc(-n2c(NCc3ccc(Br)cc3)nc3ccc(Cl)cc32)cc1` [Example 50, N-(4-Bromobenzyl)-6-chloro-1-(4-ethoxyphenyl)-1H-benzimidazol-2-amine], the IC50 at human GPR40 is less than 0.1 µM.
Still for that read-out and setting: to `CCOc1ccc(-n2c(NCc3ccc(C(C)(C)C)cc3)nc3ccc(Cl)cc32)cc1` [Example 51, N-(4-tert-Butylbenzyl)-6-chloro-1-(4-ethoxyphenyl)-1H-benzimidazol-2-amine] belongs less than 0.1 µM.
On the same count and under the same terms, for `CCOc1ccc(-n2c(SCc3ccc(Cl)cc3)nc3cc(Cl)ccc32)cc1` [Example 65, 5-Chloro-2-[(4-chlorobenzyl)thio]-1-(4-ethoxyphenyl)-1H-benzimidazole hydrochloride] the value was less than 0.1 µM; for `FC(F)(F)COc1ccc(-n2c(SCc3ccc(Cl)cc3)nc3cc(Cl)ccc32)cc1` [Example 67, 5-chloro-2-[(4-chlorobenzyl)thio]-1-[4-(2,2,2-trifluoroethoxy)phenyl]-1H-benzimidazole], less than 0.1 µM.
Still for that read-out and setting: to `CCOc1ccc(-n2c(NC(C)c3ccc(Br)cc3)nc3ccc(Cl)cc32)cc1` (stereo not drawn) [Example 71, N-[1-(4-Bromophenyl)ethyl]-6-chloro-1-(4-ethoxyphenyl)-1H-benzimidazol-2-amine] belongs less than 0.1 µM.
For the compound `CCCCOc1ccc(-n2c(NCc3ccc(C(C)(C)C)cc3)nc3ccc(Cl)cc32)cc1` [Example 75, 1-(4-Butoxyphenyl)-N-(4-tert-butylbenzyl)-6-chloro-1H-benzimidazol-2-amine], on human GPR40, the IC50 was less than 0.1 µM.
Still for that read-out and setting: to `COc1ccc(-n2c(NCc3ccc(C(C)(C)C)cc3)nc3cc(Cl)c(Cl)cc32)cc1` [Example 92, N-(4-tert-Butylbenzyl)-5,6-dichloro-1-(4-methoxyphenyl)-1H-benzimidazol-2-amine] belongs less than 0.1 µM.
Same read-out and setting: for `CCCCOc1ccc(-n2c(NCc3ccc(C(C)(C)C)cc3)nc3cc(Cl)c(Cl)cc32)cc1` [Example 99, 1-(4-butoxyphenyl)-N-(4-tert-butylbenzyl)-5,6-dichloro-1H-benzimidazol-2-amine] the value was less than 0.1 µM.
In the case of `COCc1ccc(-n2c(SCc3ccc(Cl)cc3)nc3ccc(Cl)cc32)cc1` [Example 116, 6-Chloro-2-[(4-chlorobenzyl)thio]-1-[4-(methoxymethyl)phenyl]-1H-benzimidazole], the melting point fell in the range of 97 to 98 °C.
The same measure, in the same setting: to `CCOCc1ccc(-n2c(SCc3ccc(Cl)cc3)nc3ccc(Cl)cc32)cc1` [Example 117, 6-Chloro-2-[(4-chlorobenzyl)thio]-1-[4-(ethoxymethyl)phenyl]-1H-benzimidazole] belongs 95 to 96 °C.
The same measure, in the same setting: for `Clc1ccc(CSc2nc3ccc(Cl)cc3n2-c2ccc(OCc3ccccc3)cc2)cc1` [Example 119, 1-[4-(Benzyloxy)phenyl]-6-chloro-2-[(4-chlorobenzyl)thio]-1H-benzimidazole] the value was 193 to 194 °C.
As for `Clc1ccc(CSc2nc3ccc(Cl)cc3n2-c2ccc(C3=NCCO3)cc2)cc1` [Example 124, 6-Chloro-2-[(4-chlorobenzyl)thio]-1-[4-(4,5-dihydro-1,3-oxazol-2-yl)phenyl]-1H-benzimidazole], the melting point fell in the range of 143 to 144 °C.
Take `Clc1ccc(CSc2nc3ccc(Cl)cc3n2-c2ccccn2)cc1` [Example 130, 6-Chloro-2-[(4-chlorobenzyl)thio]-1-(pyridin-2-yl)-1H-benzimidazole]: the melting point was in the range of 107 to 108 °C.
`Clc1ccc(CSc2nc3cc(Cl)ccc3n2-c2ccc(OCc3ccccc3)cc2)cc1` [Example 133, 1-[4-(Benzyloxy)phenyl]-5-chloro-2-[(4-chlorobenzyl)thio]-1H-benzimidazole]: the melting point was in the range of 137 to 138 °C.
Still for that read-out and setting: to `Clc1ccc(CSc2nc3ccc(Cl)cc3n2-c2ccc(-c3cnco3)cc2)cc1` [Example 136, 6-Chloro-2-[(4-chlorobenzyl)thio]-1-[4-(1,3-oxazol-5-yl)phenyl]-1H-benzimidazole] belongs 130 to 131 °C; to `CCOc1ccc(-n2c(SCc3ccc(Br)cc3)nc3cccc(Cl)c32)cc1` [Example 137, 2-[(4-Bromobenzyl)thio]-7-chloro-1-(4-ethoxyphenyl)-1H-benzimidazole], 143 to 144 °C.
Same read-out and setting: to `CCOc1ccc(-n2c(SCc3ccc(Cl)cc3)nc3cccc(Cl)c32)cc1` [Example 138, 7-Chloro-2-[(4-chlorobenzyl)thio]-1-(4-ethoxyphenyl)-1H-benzimidazole] belongs 130 to 131 °C; to `CCOc1ccc(-n2c(SCc3ccc(C(C)(C)C)cc3)nc3cccc(Cl)c32)cc1` [Example 139, 2-[(4-tert-Butylbenzyl)thio]-7-chloro-1-(4-ethoxyphenyl)-1H-benzimidazole], 175 to 176 °C; to `FC(F)(F)Oc1ccc(-n2c(SCc3ccc(Cl)cc3)nc3ccc(Cl)cc32)cc1` [Example 141, 6-Chloro-2-[(4-chlorobenzyl)thio]-1-[4-(trifluoromethoxy)phenyl]-1H-benzimidazole], 88 to 89 °C.
Same read-out and setting: to `FC(F)(F)Oc1ccc(-n2c(SCc3ccc(Cl)cc3)nc3cc(Cl)c(Cl)cc32)cc1` [Example 142, 5,6-Dichloro-2-[(4-chlorobenzyl)thio]-1-[4-(trifluoromethoxy)phenyl]-1H-benzimidazole] belongs 111 to 112 °C.
